From patent US10085449B2, “N-[1-((6-chloropyridin-3-yl)methyl)pyridin-2(1H)-ylidene]-2,2,2- trifluoroacetamide for control of agricultural/horticultural pests” (priority 2010, dated 2018)
Where two headings read alike, the source gives them in different places.

Legend:
Experiment in all cases: whole plant or invertebrate
Assay type in all cases: in vivo
western flower thrips = conditions: Frankliniella occidentalis, foliar
Protocol: (§1) Leaf discs 2.8 cm in diameter were cut from bean plants grown in pots, and these were sprayed with solutions of the inventive compounds at a predetermined concentration prepared to 50% acetone/water (containing 0.05% Tween 20). The treated leaf discs were air dried, following which first-instar larvae were released onto the discs. The leaf discs and larvae were then held in an incubation chamber at 25° C. (16-hour period of light, 8-hour dark period). Three days after released, the numbers of live and dead insects were counted, and the mortality was calculated from the following formula. This was a two-replication test. Mortality (%)=[number of dead insects/(number of live insects+number of dead insects)]×100

diamondback moth = conditions: Plutella xylostella, foliar
Protocol: as §1, with “5.0” for “2.8”, “cabbage” for “bean”, “second-instar” for “first-instar”

cotton aphid = conditions: Aphis gossypii, foliar
Protocol: as §1, with “2.0” for “2.8”, “cucumber” for “bean”

small brown planthopper [1] = conditions: Laodelphax striatellus, foliar
Protocol: as §1, with “Rice seedlings” for “Leaf discs 2.8 cm in diameter were cut from bean plants”, “pots” for “pots, and these”, “subjected to the foliar application of” for “sprayed with”, “seedlings” for “leaf discs”, “second-instar” for “first-instar”, “seedlings.” for “discs.”

common cutworm = conditions: for Insecticidal effects (mortality), common cutworm third-instar larvae: foliar application; for mortality at 500 ppm: foliar, 72 h
Protocol: as §1, with “5.0” for “2.8”, “cabbage” for “bean”, “third-instar” for “first-instar”

small brown planthopper [2] = conditions: Laodelphax striatellus, in Triticum aestivum, 96 h
Protocol: Wheat seedling roots 48 hours after sowing were treated with solutions of the inventive compounds at a predetermined concentration prepared to 10% acetone/water. After allowing the roots to absorb the chemical for 72 hours, ten second-instar small brown planthopper larvae were released onto each seedling. The treated seedlings and larvae were then held in an incubation chamber at 25° C. (16-hour period of light, 8-hour dark period). Four days after released, the numbers of live and dead insects were counted, and the mortality was calculated from the following formula. The test was carried out as two replications. Mortality (%)=[number of dead insects/(number of live insects+number of dead insects)]×100

rice leaf bug = conditions: foliar, 72 h
Protocol: The treated seedlings were air-dried, then each was placed in a glass cylinder and two second-instar rice leaf bug larvae were released within the same glass cylinder. Following release of the insects, the tube was capped and held in an incubation chamber at 25° C. (16-hour period of light, 8-hour dark period). […] Three days after released, the numbers of live and dead insects were counted, and the mortality was calculated from the following formula. Mortality (%)=[number of dead insects/(number of live insects+number of dead insects)]×100

small brown planthopper [3] = conditions: Laodelphax striatellus, 72 h; for pest or weed control at 0.005 mg/pot / pest or weed control at 0.01 mg/pot / pest or weed control at 0.05 mg/pot: rice soil drenching, read-out: Small brown planthopper (rice soil drenching), effect; for pest or weed control at 0.005 mg/pot: 0.005 mg/pot (Table 13); for pest or weed control at 0.01 mg/pot: 0.01 mg/pot (Table 13); for pest or weed control at 0.05 mg/pot: 0.05 mg/pot (Table 13); for mortality at 0.05 mg/seedling / mortality at 0.005 mg/pot / mortality at 0.01 mg/pot / mortality at 0.05 mg/pot: soil; for mortality at 0.005 mg/pot / mortality at 0.01 mg/pot / mortality at 0.05 mg/pot: read-out: Insecticidal effects (mortality), small brown planthopper second-instar larvae
Protocol: Rice seedlings grown in pots were subjected to soil drenching treatment with solutions of the inventive compounds at a predetermined concentration prepared to 10% acetone/water. Three days following treatment, ten second-instar small brown planthopper larvae were released onto each seedling. The treated seedlings and larvae were then held in an incubation chamber at 25° C. (16-hour period of light, 8-hour dark period). Three days after released, the numbers of live and dead insects were counted, and the mortality was calculated from the following formula. The test was carried out as two replications. Mortality (%)=[number of dead insects/(number of live insects+number of dead insects)]×100

[4] = read-out: Insecticidal effects (mortality), western flower thrips first-instar larvae
[5] = read-out: Insecticidal effects (mortality), diamondback moth second-instar larvae
[6] = read-out: Insecticidal effects (mortality), cotton aphid first-instar larvae
[7] = read-out: Insecticidal effects (mortality), small brown planthopper second-instar larvae

Structure (SMILES) | mortality at 500 ppm (western flower thrips; 72 h) [%] | mortality at 500 ppm (western flower thrips; [4]) [%] | mortality at 100 ppm (diamondback moth; [5]) [%] | mortality at 500 ppm (diamondback moth; [5]) [%] | mortality at 100 ppm (diamondback moth; in Brassica oleracea, 72 h) [%] | mortality at 500 ppm (diamondback moth; in Brassica oleracea, 72 h) [%] | mortality at 1.25 ppm (cotton aphid; [6]) [%] | mortality at 5 ppm (cotton aphid; [6]) [%] | mortality at 20 ppm (cotton aphid; [6]) [%] | mortality at 100 ppm (cotton aphid; [6]) [%] | mortality at 20 ppm (cotton aphid; in Cucumis sativus, 72 h) [%] | mortality at 100 ppm (cotton aphid; in Cucumis sativus, 72 h) [%] | Insecticidal effects (mortality), common cutworm third-instar larvae (common cutworm; 500 ppm) | mortality at 0.5 mg/seedling (small brown planthopper [2]; [7]) [%] | mortality at 2 mg/seedling (small brown planthopper [2]; [7]) [%] | mortality at 20 mg/seedling (small brown planthopper [2]; [7]) [%] | mortality at 50 ppm (rice leaf bug) [%] | pest or weed control at 0.05 mg/pot (small brown planthopper [3]) [%] | mortality at 0.05 mg/seedling (small brown planthopper [3]) [%] | mortality at 0.05 mg/pot (small brown planthopper [3]) [%] | other results
O=C(N=c1ccccn1Cc1cnc(Cl)c(F)c1)C(F)(F)F [Compound 227, N-[1-((6-chloro-5-fluoropyridin-3-yl)methyl)pyridin-2(1H)-ylidene]-2,2,2-trifluoroacetamide] | ≥ 80 | 90 | 100 | 100 | ≥ 80 | ≥ 80 | 95 | 100 | 100 | 100 | ≥ 80 | ≥ 80 | 100 | 50 | 75 | 100 | ≥ 80 | 90 | ≥ 80 | 90 | mortality at 100 ppm (western flower thrips; [4]): 65%; mortality at 20 ppm (diamondback moth; [5]): 100%; mortality at 500 ppm (cotton aphid; [6]): 100%; mortality at 500 ppm (cotton aphid; in Cucumis sativus, 72 h): ≥ 80%; mortality at 5 ppm (small brown planthopper [1]; [7]): 100%; mortality at 100 ppm (small brown planthopper [1]; in Oryza sativa, 72 h): ≥ 80%; Insecticidal effects (mortality), common cutworm third-instar larvae (common cutworm; 100 ppm): 56; mortality at 500 ppm (common cutworm): ≥ 80%; mortality at 20 µg/seedling (small brown planthopper [2]): ≥ 80%; pest or weed control at 0.005 mg/pot (small brown planthopper [3]): 75%; pest or weed control at 0.01 mg/pot (small brown planthopper [3]): 100%; mortality at 0.005 mg/pot (small brown planthopper [3]): 75%; mortality at 0.01 mg/pot (small brown planthopper [3]): 100%
O=C(N=c1ccccn1Cc1ccc(Br)nc1)C(F)(F)F [Compound 231, N-[1-((6-bromopyridin-3-yl)methyl)pyridin-2(1H)-ylidene]-2,2,2-trifluoroacetamide] | ≥ 80 | 85 | 100 | – | ≥ 80 | – | 74 | 100 | 100 | – | ≥ 80 | – | 0 | 25 | 75 | 100 | ≥ 80 | 100 | ≥ 80 | 100 | mortality at 100 ppm (western flower thrips; [4]): 55%; mortality at 20 ppm (diamondback moth; [5]): 100%; mortality at 100 ppm (small brown planthopper [1]; [7]): 100%; Insecticidal effects (mortality), common cutworm third-instar larvae (common cutworm; 100 ppm): 0; mortality at 20 µg/seedling (small brown planthopper [2]): ≥ 80%; pest or weed control at 0.005 mg/pot (small brown planthopper [3]): 70%; pest or weed control at 0.01 mg/pot (small brown planthopper [3]): 100%; mortality at 0.005 mg/pot (small brown planthopper [3]): 70%; mortality at 0.01 mg/pot (small brown planthopper [3]): 100%
O=C(N=c1ccccn1Cc1ccc(Cl)nc1)C(F)(F)Cl [Compound 239, 2-chloro-N-[1-((6-chloropyridin-3-yl)methyl)pyridin-2(1H)-ylidene]-2,2-difluoroacetamide] | – | 40 | 100 | 100 | ≥ 80 | ≥ 80 | – | – | 100 | 100 | ≥ 80 | ≥ 80 | 90 | 100 | 100 | 100 | ≥ 80 | 100 | ≥ 80 | 100 | mortality at 20 ppm (diamondback moth; [5]): 100%; mortality at 500 ppm (cotton aphid; [6]): 100%; mortality at 500 ppm (cotton aphid; in Cucumis sativus, 72 h): ≥ 80%; mortality at 500 ppm (common cutworm): ≥ 80%; mortality at 20 µg/seedling (small brown planthopper [2]): ≥ 80%; mortality at 0.25 mg/seedling (small brown planthopper [2]; [7]): 100%; pest or weed control at 0.005 mg/pot (small brown planthopper [3]): 30%; pest or weed control at 0.01 mg/pot (small brown planthopper [3]): 80%; mortality at 0.005 mg/pot (small brown planthopper [3]): 30%; mortality at 0.01 mg/pot (small brown planthopper [3]): 80%
O=C(N=c1ccccn1Cc1ccc(Cl)nc1)C(F)(F)C(F)(F)F [Compound 242, N-[1-((6-chloropyridin-3-yl)methyl)pyridin-2(1H)-ylidene]-2,2,3,3,3-pentafluoropropanamide] | ≥ 80 | 100 | 100 | 100 | ≥ 80 | ≥ 80 | 35 | 80 | 100 | 100 | ≥ 80 | ≥ 80 | 60 | 100 | 100 | 100 | ≥ 80 | 100 | ≥ 80 | 100 | mortality at 100 ppm (western flower thrips; [4]): 76%
O=C(N=c1ccccn1Cc1cnc(Cl)nc1)C(F)(F)F [Compound 243, N-[1-((2-chloropyrimidin-5-yl)methyl)pyridin-2(1H)-ylidene]-2,2,2-trifluoroacetamide] | ≥ 80 | 100 | 100 | 100 | ≥ 80 | ≥ 80 | 80 | 100 | – | 100 | ≥ 80 | ≥ 80 | 10 | 100 | 100 | 100 | ≥ 80 | 100 | ≥ 80 | 100 | mortality at 500 ppm (cotton aphid; [6]): 100%; mortality at 500 ppm (cotton aphid; in Cucumis sativus, 72 h): ≥ 80%
